In patent publication US10499642B2, “Isoxazoline-substituted benzamides and analogues as insecticides” (SYNGENTA PARTICIPATIONS AG, priority 2015, dated 2019):
Like-named read-outs stand apart in the source and are kept apart here.

How the values were obtained:
Format in all cases: in vivo
Diabrotica Balteata = assay: Diabrotica balteata (corn root worm) maize sprout test; settings: 96 h, read-out: effect in at least one of the two categories (mortality or growth inhibition)
Outline: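 Scoring covered both mortality and growth inhibition relative to untreated controls, 4 days post-infestation. Test solutions at 200 ppm, diluted in water from 10′000 ppm DMSO stocks, were sprayed onto agar-held maize sprouts, which after drying received 6 to 10 L2 larvae each well.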

Myzus persicae = Myzus persicae (green peach aphid) sunflower leaf disc test; settings: foliar, 144 h
Description: Myzus persicae (Green Peach Aphid):
Sunflower leaf discs were placed on agar in a 24-well microtiter plate and sprayed with test solutions at an application rate of 200 ppm. After drying, the leaf discs were infested with an aphid population of mixed ages. After an incubation period of 6 days after treatment, samples were checked for mortality. The following compounds gave at least 80% mortality of Myzus persicae: […]

Plutella xylostella = Plutella xylostella (diamond back moth) artificial diet test; settings: 120 h, read-out: effect in at least one of the two categories (mortality or growth inhibition)
Outline: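 At a 200 ppm rate, test solutions were applied to artificial diet and allowed to dry before second-instar larvae were added. Five days later, larval mortality and growth inhibition were rated against untreated samples.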

Tetranychus urticae = Tetranychus urticae (two-spotted spider mite) bean leaf disc test; settings: foliar, 192 h
Description: Tetranychus urticae (Two-Spotted Spider Mite):
Bean leaf discs on agar in 24-well microtiter plates were sprayed with aqueous test solutions prepared from 10′000 ppm DMSO stock solutions. After drying the leaf discs were infested with a mite population of mixed ages. The samples were assessed for mortality on mixed population (mobile stages) 8 days after infestation.

Thrips tabaci = Thrips tabaci (onion thrips) sunflower leaf disc test; settings: foliar, 144 h
Description: Thrips tabaci (Onion Thrips):
Sunflower leaf discs were placed on agar in 24-well microtiter plates and sprayed with aqueous test solutions prepared from 10′000 ppm DMSO stock solutions. After drying the leaf discs were infested with a thrips population of mixed ages. The samples were assessed for mortality 6 days after infestation.

Spodoptera littoralis = Spodoptera littoralis (Egyptian cotton leaf worm) cotton leaf disc test; settings: foliar, 72 h, read-out: control (at least one of mortality, anti-feedant effect, and growth inhibition)
Outline: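 Five first-instar larvae per disc were placed on dried, sprayed cotton leaf discs held on agar. Test solutions were aqueous, made from 10′000 ppm DMSO stocks. At day 3, control was counted when mortality, feeding deterrence or growth inhibition exceeded the untreated discs.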

CC(=O)COC1=NOC(NC(=O)c2ccc(C3=NO[C@@](c4cc(Cl)c(Cl)c(Cl)c4)(C(F)(F)F)C3)cc2C)C1 (stereo partly drawn) [Compound A121, N-(3-acetonyloxy-4,5-dihydroisoxazol-5-yl)-2-methyl-4-[(5S)-5-(3,4,5-trichlorophenyl)-5-(trifluoromethyl)-4H-isoxazol-3-yl]benzamide]
≥ 80%: percent effect (mortality or growth inhibition) at 200 ppm (Diabrotica Balteata) | mortality at 200 ppm (Myzus persicae) | percent effect (mortality or growth inhibition) at 200 ppm (Plutella xylostella) | mortality at 200 ppm (Tetranychus urticae) | mortality at 200 ppm (Thrips tabaci) | percent control (mortality, anti-feedant effect or growth inhibition) at 200 ppm (Spodoptera littoralis)

CC1=NOC(NC(=O)c2ccc(C3=NO[C@@](c4cc(Br)cc(C(F)(F)F)c4)(C(F)(F)F)C3)cc2C)C1 (stereo partly drawn) [Compound A029, 4-[(5S)-5-[3-bromo-5-(trifluoromethyl)phenyl]-5-(trifluoromethyl)-4H-isoxazol-3-yl]-2-methyl-N-(3-methyl-4,5-dihydroisoxazol-5-yl)benzamide]
≥ 80%: percent effect (mortality or growth inhibition) at 200 ppm (Diabrotica Balteata; application rate 200 ppm, maize sprouts, L2 larvae, 4 days after infestation) | mortality at 200 ppm (Myzus persicae; application rate 200 ppm, sunflower leaf discs, population of mixed ages, 6 days after treatment, read-out: mortality) | percent effect (mortality or growth inhibition) at 200 ppm (Plutella xylostella; application rate 200 ppm, artificial diet, L2 larvae, 5 days after infestation) | mortality at 200 ppm (Tetranychus urticae; application rate 200 ppm, bean leaf discs, mixed population (mobile stages), 8 days after infestation, read-out: mortality) | mortality at 200 ppm (Thrips tabaci; application rate 200 ppm, sunflower leaf discs, population of mixed ages, 6 days after infestation, read-out: mortality) | percent control (mortality, anti-feedant effect or growth inhibition) at 200 ppm (Spodoptera littoralis; application rate 200 ppm, cotton leaf discs, L1 larvae, 3 days after infestation)

CNC1=NOC(NC(=O)c2ccc(C3=NO[C@@](c4cc(Cl)c(F)c(Cl)c4)(C(F)(F)F)C3)cc2C)C1 (stereo partly drawn) [Compound A120]
≥ 80%: percent effect (mortality or growth inhibition) at 200 ppm (Diabrotica Balteata) | mortality at 200 ppm (Myzus persicae) | percent effect (mortality or growth inhibition) at 200 ppm (Plutella xylostella) | mortality at 200 ppm (Tetranychus urticae) | mortality at 200 ppm (Thrips tabaci) | percent control (mortality, anti-feedant effect or growth inhibition) at 200 ppm (Spodoptera littoralis)

COC1=NOC(NC(=O)c2ccc(C3=NO[C@@](c4cc(Cl)cc(C(F)(F)F)c4)(C(F)(F)F)C3)cc2Cl)C1 (stereo partly drawn) [Compound A065]
≥ 80%: percent effect (mortality or growth inhibition) at 200 ppm (Diabrotica Balteata) | mortality at 200 ppm (Myzus persicae) | percent effect (mortality or growth inhibition) at 200 ppm (Plutella xylostella) | mortality at 200 ppm (Tetranychus urticae) | mortality at 200 ppm (Thrips tabaci) | percent control (mortality, anti-feedant effect or growth inhibition) at 200 ppm (Spodoptera littoralis)
